Experimental findings from patent publication US9657312B2, “Replication competent pseudo-type retrovirus vector system” (Inje University Industry-Academic Cooperation Foundation, priority 2012, dated 2017) are described below.

This series deals with U-87 MG cells. The series can be described thus: MTT assay of cytotoxicity of vector-infected cells treated with GCV. In kind it is cell-based, human. To be noted: normal (non-infected) cells. On the procedure: In order to measure a degree of cytotoxicity of the cells infected with the spRCR-TK vector when treated with GCV in vitro, MTT assay was carried out. First, a vector carrying a therapeutic gene, TK, instead of a GFP gene of the Env vector was prepared. Then, the 293T cells were transfected with the prepared vector and a Gag-pol vector, so as to manufacture the spRCR-TK vector. Then, the U-87 MG cells were infected with the virus of the spRCR-TK vector, and maintained for 14 days. Afterwards, the infected cells and non-infected cells were inoculated into a 96-well plate. […] The GCV treatment period was divided as the 1st, 2nd, 3rd, and 4th day, to perform MTT assay.
In general terms: Formazan colour is commonly taken as a measure of viable cells.

Regarding `Nc1nc(O)c2ncn(COC(CO)CO)c2n1` [GCV, Ganciclovir], the “GCV concentration from which normal cells show cytotoxicity” value was no less than 70 µg/mL.
